In US20120190666A1, “Heteroaryl Compounds as PIKK Inhibitors” (Amgen Inc., priority 2009, published 2012) one finds IC50 data, which are given here for 8 compounds.

For one experiment, the target named is mTOR (Homo sapiens, UniProt P42345). Briefly: mTOR LanthaScreen (TR-FRET, phosphorylation of 4EBP1). It counts as biochemical. To be noted: phosphorylation of GFP-4E-BP1, 10 μM ATP, 90 minutes. On the procedure:
The mTOR LanthaScreen is a TR-FRET assay measuring the phosphorylation of mTOR's substrate 4EBP1. 384 well compound plates were prepared containing 1 μl of compound per well starting at 5 mM and diluted 1:2 across the row, resulting in a 22 well serial dilution. 24 μl of assay buffer (Invitrogen, PV4794) with 2 mM DTT was added to the compound plate in rows 1-24 using the VELOCITY 11™ VPREP™ 384 ST resulting in a DMSO concentration of 4%. The compound plate was mixed and 2.5 μl of serially diluted compound or controls was added to the assay plate (Costar, 3658).
The assay was conducted on the PerkinElmer® FlexDrop PLUS. A 5 μl mix of 800 nM GFP-4E-BP1 (Invitrogen, PV4759) and 20 μM ATP (Amgen) was added to rows 1-24. 2.5 μl of 0.6 μg/ml of mTOR Enzyme (Amgen) was added to rows 1-23. 2.5 μl of assay buffer was added to row 24 for the low control. The final concentration of the compounds was 50 μM serially diluted to 23.84 pM in 1% DMSO. […] The final concentrations in the assay reagents were 400 nM GFP-4E-BP1, 10 μM of ATP and 0.15 μg/ml of mTOR enzyme. The compound, enzyme, and substrate were incubated for 90 minutes. At this point, 10 μl of stop solution was added (20 mM Tris, pH 7.5 (Invitrogen, 15567-027), 0.02% Sodium Azide (Teknova, S0208), 0.01% NP-40 (Roche, 11754599001), 20 mM EDTA (Invitrogen, 15575-038) and 4 nM of Tb-anti-p4E-BP1 (Invitrogen, PV4758)) for a final concentration of 2 nM of Tb-anti-p4E-BP1.
Sixty minutes later the plates were read on the PerkinElmer® EnVision™ 2103 Multilable Reader using the Excitation filter 340 nm and the Emission filters 520 nm and 495 nm.

In another experiment the target is T1, PI3Kα (Homo sapiens, UniProt P42336).
T1 construct: Full length p110 subunits of PI3K α, β and δ, N-terminally labeled with polyHis tag; polyHis (N); made in house; host or cells: Sf9 insect cells (baculovirus)
Kind of experiment: In vitro PI3K AlphaScreen assay, PI3Kα. It counts as biochemical. The following applies: PI(4,5)P2 substrate, 20 minutes at room temperature, read-out: P13Kalpha IC50 um. On the procedure:
The PI3K AlphaScreen® assay (PerkinElmer, Waltham, Mass.) measures the activity of a panel of four phosphoinositide 3-kinases: PI3Kα, PI3KIβ, PI3Kγ, and PI3Kδ. Each of these enzymes phosphorylates the 3′-hydroxyl group on phosphatidylinositiol (4,5)-bisphosphate (PIP2) to produce phosphatidylinositol (3,4,5)-trisphosphate (PIP3). This phosphorylation activity is measured using a GST-tagged PIP3 binding protein (Echelon Biosciences, Salt Lake City, Utah), an anti-GST-tagged Acceptor bead, and streptavidin-Donor bead. The interaction of biotinylated-PIP3 analog (IP4) and the PIP3 binding protein brings both Acceptor and Donor beads together producing, upon excitation of the Donor beads at 680 nm, a singlet oxygen species leading to the luminescent AlphaScreen® signal. When PIP3 is produced via phosphorylation of PIP2 by a PI3K, PIP3 competes with biotinylated-PIP3 analog (IP4) for binding to the PIP3 binding protein. In the absence of this interaction, proximity of the Donor and Acceptor beads is decreased, producing a loss of luminescent signal which is […] to PI3K activity. […] The enzyme reaction buffer is made using sterile water (Baxter, Deerfield, Ill.) and 50 mM Tris HCl pH 7, 14 mM MgCl2, 2 mM sodium cholate, and 100 mM NaCl. 2 mM DTT is added fresh the day of the experiment. The AlphaScreen® reaction buffer is made using sterile water and 10 mM Tris HCl pH 7.5, 150 mM NaCl, 0.10% Tween 20, and 30 mM EDTA. 1 mM DTT is added fresh the day of the experiment. The source plates for this assay are 384-well Greiner clear polypropylene plates containing test compounds at 5 mM and diluted 1:2 over 22 points. Columns 23 and 24 contain only DMSO as these are designated for positive and negative controls. Source plates are replicated into 384-well Optiplates (PerkinElmer, Waltham, Mass.), 0.5 μL/well, to make assay-ready plates. The different PI3K isoforms are each diluted in enzyme reaction buffer to 2× working solutions. PI3Kα is diluted to 1.6 nM, PI3Kβ is diluted to 0.8 nM, PI3Kγ is diluted to 15 nM, and PI3Kδ is diluted to 1.6 nM. Two different 2× substrate solutions are made in enzyme reaction buffer. In one solution, PI(4,5)P2 (Echelon Biosciences, Salt Lake City, Utah) is diluted to 10 μM and ATP is diluted to 20 μM. This solution is used in the assays testing PI3Kα and PI3Kβ. In a second solution, PI(4,5)P2 is diluted to 10 μM and ATP is diluted to 80 μM. This solution is used in the assays testing PI3Kγ and PI3Kδ. The AlphaScreen® reaction solutions are made using beads from the anti-GST AlphaScreen® kit (PerkinElmer, Waltham, Mass.). Two solutions are made in Alphascreen reaction buffer to 4× working concentrations. In one solution, biotinylated-IP4 (Echelon Biosciences, Salt Lake City, Utah) is diluted to 40 nM and streptavadin-Donor Beads are diluted to 80 μg/mL. In the second solution, PIP3-binding protein (Echelon Biosciences, Salt Lake City, Utah) is diluted to 40 nM and anti-GST-Acceptor Beads are diluted to 80 μg/mL. 10 μL/well of enzyme reaction buffer is added to Column 24 of the assay ready plates in place of enzyme. This is done for plates in the PI3Kα, β, and δ assays. Using a 384-well dispensing Multidrop (Titertek, Huntsville, Ala.), 10 μL/well of 2× enzyme (PI3Kα, β, δ) is added to Columns 1-23 of the appropriate assay ready plates (for PI3Kγ 10 μL is added to Columns 1-24). 10 μL/well of the appropriate substrate solution (the solution with 20 μM ATP for PI3Kα and β assays, and the solution with […] for PI3Kγ and δ assays) is then added to Columns 1-24 of the plates. Plates are then incubated at room temperature for 20 minutes. In the dark, 10 μL/well of the Donor Bead solution is added to Columns 1-24 of the plates to quench the enzyme reaction. The plates are incubated at room temperature for 30 minutes. Still in the dark, 10 μL/well of the Acceptor Bead solution is also added to Columns 1-24 of the plates. The plates are then incubated in the dark for 1.5 hours.

Experiment [1] concerns phosphorylation of Akt at Serine 473 in U87 MG cells. Briefly: pAkt AlphaScreen (U87 cell). The experiment is classed as cell-based. To be noted: Homo sapiens, U-87 MG, 2 h; pAkt at Serine 473, U87 MG cells, two hours with compound. As to the method:
The pAkt AlphaScreen® assay (PerkinElmer, Waltham, Mass.) determines whether there is phosphorylation of Akt at Serine 473 by recruitment of a phosphospecific antibody. This assay was performed using U87 MG cells. The U87 growth media consists of MEM (Gibco, Carlsbad, Calif.) supplemented with 10% FBS (Gibco), 1× Non-Essential Amino Acids (Gibco,) and 1× Penicillin/Streptomycin/Glutamine (Gibco). The cells were maintained weekly using 0.05% Trypsin (Gibco) and replated in 150 mm TC— Treated Culture Dishes (Corning, Corning, N.Y.).
The first day of the assay, the adherent cells were trypsinized, media was added to the loose cells and cells were mixed to a homogenous mixture. 0.5 ml of the homogenous mixture was counted on the Beckman Coulter® Vi-Cell™ XR (Fullerton, Calif.). 50 frames of cells were counted and the number of viable cells was determined. The cells were then diluted to 0.25 million cells per ml, and centrifuged at 200 rcf for 5 minutes. The media was removed and the cells were reconstituted in fresh media for plating. The cells were plated at 20 μl per well on the PerkinElmer® FlexDrop PLUS in Low Volume 384 Well White Tissue Culture Plates (Corning) with a final cell density of 5K cells per well. The plates were incubated overnight at 37° Celsius, 5% CO2.
On the second day, the compound plates were prepared, the cells were treated with compound and the pAkt reaction mix was added to the cell lysate. 384 well compound plates were prepared containing 1 μl of compound per well starting at 5 mM and diluted 1:2 across the row, resulting in a 22 well serial dilution. 39 μl of growth media was added to the compound plate in rows 1-22 using the PerkinElmer® FlexDrop PLUS resulting in a DMSO concentration of 2.5%. The cell plates and diluted compound plates were put onto the VELOCITY11™ VPREP™ 384 ST where the compound plate was mixed and 5 μl of serially diluted compound or controls was added to the cell plate. The final concentration of the compounds was 25 μM serially diluted to 11.9 pM in 0.5% DMSO.
The cell plates were then incubated with compound for two hours at 37° C., 5% CO2. After two hours, the media in the cell plates was aspirated using the BioTek® ELx405HT plate washer (Winooski, Vt.) removing the majority of media and compound without disturbing the adherent U87 cells. The following assay reagents are components of the SureFire® Akt (Ser 473) Phosphorylation 50K Point Kit (TGR BioSciences, Adelaide, Austalia) and an IgG Detection Kit (PerkinElmer, Waltham, Mass.). 5 μl of 1× Lysis Buffer was added to each well using the PerkinElmer® FlexDrop PLUS. The plates were then incubated at room temperature on a shaker for ten minutes. The AlphaScreen® reaction was prepared under low light conditions (subdued or green light) including p-Aid (Ser 473) Reaction Buffer, Dilution Buffer, Activation Buffer, Acceptor Beads and Donor Beads at a ratio of 40:20:10:1:1 respectively. The AlphaScreen® reaction was added to the cell lysate at 6 μl per well using the PerkinElmer® FlexDrop PLUS. The plates were placed in a humid environment to reduce edge effects and incubated overnight at room temperature with restricted air flow in the dark.
On the final day of the experiment, the plates were read on the PerkinElmer® EnVision™ 2103 Multilable Reader using the standard AlphaScreen® readout. The POC is calculated and the data is analyzed to report the IC50 IP for pAkt at Serine 473.
Activity data for the compounds tested in the PI3K cell based Akt assay is provided in Table 1 under the column heading U87

T1 sequence (P42336 whole entry): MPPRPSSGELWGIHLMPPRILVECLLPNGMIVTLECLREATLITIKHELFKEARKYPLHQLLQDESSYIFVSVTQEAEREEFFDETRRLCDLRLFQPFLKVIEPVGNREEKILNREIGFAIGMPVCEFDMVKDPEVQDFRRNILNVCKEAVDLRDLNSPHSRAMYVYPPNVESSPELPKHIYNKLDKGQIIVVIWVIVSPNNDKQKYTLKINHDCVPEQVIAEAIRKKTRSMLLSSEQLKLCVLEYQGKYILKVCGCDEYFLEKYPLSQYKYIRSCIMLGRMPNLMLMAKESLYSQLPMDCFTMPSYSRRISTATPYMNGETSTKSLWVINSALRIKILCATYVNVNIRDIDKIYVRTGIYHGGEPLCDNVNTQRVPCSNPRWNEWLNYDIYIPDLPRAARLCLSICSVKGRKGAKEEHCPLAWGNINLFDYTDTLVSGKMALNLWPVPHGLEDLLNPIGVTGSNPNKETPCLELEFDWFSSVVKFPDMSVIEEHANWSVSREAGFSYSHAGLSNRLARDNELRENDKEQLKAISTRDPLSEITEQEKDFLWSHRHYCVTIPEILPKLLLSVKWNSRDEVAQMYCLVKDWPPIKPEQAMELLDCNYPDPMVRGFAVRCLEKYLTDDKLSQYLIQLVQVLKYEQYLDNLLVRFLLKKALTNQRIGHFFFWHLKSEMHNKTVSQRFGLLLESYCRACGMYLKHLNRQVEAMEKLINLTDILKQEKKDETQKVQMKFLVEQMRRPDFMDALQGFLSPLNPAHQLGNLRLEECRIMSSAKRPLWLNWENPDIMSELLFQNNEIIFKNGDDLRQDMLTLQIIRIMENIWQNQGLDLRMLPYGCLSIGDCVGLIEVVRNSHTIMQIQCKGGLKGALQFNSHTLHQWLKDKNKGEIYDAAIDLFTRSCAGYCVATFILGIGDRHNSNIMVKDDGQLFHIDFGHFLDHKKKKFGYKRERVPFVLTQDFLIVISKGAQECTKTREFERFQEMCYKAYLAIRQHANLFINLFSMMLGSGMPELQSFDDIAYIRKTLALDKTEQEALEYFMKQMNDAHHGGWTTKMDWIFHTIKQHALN
T1 sequence (P27986 whole entry partner): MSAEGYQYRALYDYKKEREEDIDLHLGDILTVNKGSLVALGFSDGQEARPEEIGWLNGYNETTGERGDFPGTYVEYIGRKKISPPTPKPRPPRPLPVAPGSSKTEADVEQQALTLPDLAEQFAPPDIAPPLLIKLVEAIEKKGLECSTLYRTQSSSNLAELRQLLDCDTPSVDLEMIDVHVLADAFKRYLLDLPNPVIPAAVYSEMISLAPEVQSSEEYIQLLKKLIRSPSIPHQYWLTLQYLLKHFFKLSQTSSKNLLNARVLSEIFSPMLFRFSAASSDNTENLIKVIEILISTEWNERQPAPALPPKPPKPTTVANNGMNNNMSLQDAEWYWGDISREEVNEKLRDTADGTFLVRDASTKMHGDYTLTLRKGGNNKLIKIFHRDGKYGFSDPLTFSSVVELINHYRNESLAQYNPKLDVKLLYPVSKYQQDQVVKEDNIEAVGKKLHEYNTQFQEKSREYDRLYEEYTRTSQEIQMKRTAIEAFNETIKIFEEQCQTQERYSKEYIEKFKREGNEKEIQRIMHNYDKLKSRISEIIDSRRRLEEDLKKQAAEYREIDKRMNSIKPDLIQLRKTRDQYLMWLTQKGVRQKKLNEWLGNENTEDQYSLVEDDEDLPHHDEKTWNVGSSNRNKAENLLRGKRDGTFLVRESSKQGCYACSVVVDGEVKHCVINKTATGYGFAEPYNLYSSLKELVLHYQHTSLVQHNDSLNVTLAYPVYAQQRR

What is called IC50 is the midpoint of a concentration-inhibition curve. Take `Cc1nc(N)nc(-c2c(Nc3ccn(C(=O)NCCO)n3)nc3ccccn23)n1` [Cpd 198, 3-((3-(4-amino-6-methyl-1,3,5-triazin-2-yl)imidazo[1,2-a]pyridin-2-yl)amino)-N-(2-hydroxyethyl)-1H-pyrazole-1-carboxamide]: the IC50 on mTOR came to 110 nM; at PI3Kα, 2210 nM.
Take `Cc1nc(N)nc(-c2c(Nc3ccnn3C(=O)N3CCOCC3)nc3ccccn23)n1` [Cpd 201]: the figures for the IC50 at mTOR and on PI3Kα were 250 nM and 1390 nM, respectively.
Regarding `Cc1nc(N)cc(-c2c(Nc3ccn(S(C)(=O)=O)n3)nc3ccccn23)n1` [Cpd 217, 3-(6-amino-2-methyl-4-pyrimidinyl)-N-(1-(methylsulfonyl)-1H-pyrazol-3-yl)imidazo[1,2-a]pyridin-2-amine], the IC50 worked out at 1740 nM at mTOR and 1180 nM in experiment [1].
`CNCCNC(=O)n1ccc(Nc2nc3cccnn3c2-c2cc(N)nc(C)n2)n1` [Cpd 258]: the IC50 is 500 nM on mTOR and 30 nM on PI3Kα.
As to `Cc1nc(N)nc(-c2c(Nc3ccc4cccnc4c3)nc3ccc(N4CCN(C(=O)N(C)C)CC4)cn23)n1` [Cpd 277, 4-(3-(4-amino-6-methyl-1,3,5-triazin-2-yl)-2-(7-quinolinylamino)-imidazo[1,2-a]pyridin-6-yl)-N,N-dimethyl-1-piperazinecarboxamide], the IC50 is 40 nM at PI3Kα and 140 nM in experiment [1].
Take `Cc1nc(N)nc(-c2c(Nc3ccn[nH]3)nc3ccc(C(N)=O)cn23)n1` [Cpd 293, 3-(4-amino-6-methyl-1,3,5-triazin-2-yl)-2-(1H-pyrazol-5-ylamino)-imidazo[1,2-a]pyridine-6-carboxamide]: the IC50 stood at 300 nM at PI3Kα and 710 nM in experiment [1].
The corresponding values for `Cc1nc(NCC(F)(F)F)cc(-c2c(Nc3ccn[nH]3)nc3cccnn23)n1` [Cpd 295, 3-(2-methyl-6-((2,2,2-trifluoroethyl)amino)-4-pyrimidinyl)-N-1H-pyrazol-5-ylimidazo[1,2-b]pyridazin-2-amine] are 2980 nM and 240 nM.
`CNC(=O)c1cccc(Nc2nc3cccnn3c2-c2cc(N)nc(C)n2)c1` [Cpd 334]: the IC50 on PI3Kα turned out to be 4940 nM; in experiment [1] it was 240 nM.
